Assays:
[1] = system: CDK2/CycE; assay: CDK2/CycE kinase assay; type: biochemical, human; conditions: ratio of IC50 values CDK2/CDK9, in-house assays
[2] = target: CDK9/CycT1 (Homo sapiens, UniProt P50750); assay: CDK9/CycT1 kinase assay; type: biochemical
[3] = system: HeLa cells; assay: Proliferation assay HeLa; type: cell-based; conditions: Homo sapiens, 96 h, read-out: HeLa IC50
[4] = system: MOLM‐13 cells; assay: Proliferation assay MOLM‐13; type: cell-based; conditions: Homo sapiens, MOLM-13, 96 h, read-out: MOLM‐13 IC50
[5] = system: MOLM‐13 human AML model; assay: MOLM‐13 human AML xenograft model in mice; type: in vivo, mouse; conditions: for T/C ratio: end of the experiment
[6] = Metabolic stability in rat liver microsomes; type: in vitro ADME; conditions: rat, liver microsomes
[7] = Metabolic stability in mouse liver microsomes; type: in vitro ADME
[8] = Metabolic stability in human liver microsomes; type: in vitro ADME

Chain of CDK9/CycT1 (P50750 whole entry): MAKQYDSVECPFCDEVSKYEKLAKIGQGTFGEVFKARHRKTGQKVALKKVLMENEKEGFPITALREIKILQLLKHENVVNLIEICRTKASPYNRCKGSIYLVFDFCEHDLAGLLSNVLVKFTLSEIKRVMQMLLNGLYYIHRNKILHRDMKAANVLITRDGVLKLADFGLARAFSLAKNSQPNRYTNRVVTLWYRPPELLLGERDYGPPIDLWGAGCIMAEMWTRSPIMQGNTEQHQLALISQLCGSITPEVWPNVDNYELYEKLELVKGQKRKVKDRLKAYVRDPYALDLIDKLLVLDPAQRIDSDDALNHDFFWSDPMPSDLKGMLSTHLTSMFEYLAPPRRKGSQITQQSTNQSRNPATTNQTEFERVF
Chain of CDK9/CycT1 (O60563 whole entry partner): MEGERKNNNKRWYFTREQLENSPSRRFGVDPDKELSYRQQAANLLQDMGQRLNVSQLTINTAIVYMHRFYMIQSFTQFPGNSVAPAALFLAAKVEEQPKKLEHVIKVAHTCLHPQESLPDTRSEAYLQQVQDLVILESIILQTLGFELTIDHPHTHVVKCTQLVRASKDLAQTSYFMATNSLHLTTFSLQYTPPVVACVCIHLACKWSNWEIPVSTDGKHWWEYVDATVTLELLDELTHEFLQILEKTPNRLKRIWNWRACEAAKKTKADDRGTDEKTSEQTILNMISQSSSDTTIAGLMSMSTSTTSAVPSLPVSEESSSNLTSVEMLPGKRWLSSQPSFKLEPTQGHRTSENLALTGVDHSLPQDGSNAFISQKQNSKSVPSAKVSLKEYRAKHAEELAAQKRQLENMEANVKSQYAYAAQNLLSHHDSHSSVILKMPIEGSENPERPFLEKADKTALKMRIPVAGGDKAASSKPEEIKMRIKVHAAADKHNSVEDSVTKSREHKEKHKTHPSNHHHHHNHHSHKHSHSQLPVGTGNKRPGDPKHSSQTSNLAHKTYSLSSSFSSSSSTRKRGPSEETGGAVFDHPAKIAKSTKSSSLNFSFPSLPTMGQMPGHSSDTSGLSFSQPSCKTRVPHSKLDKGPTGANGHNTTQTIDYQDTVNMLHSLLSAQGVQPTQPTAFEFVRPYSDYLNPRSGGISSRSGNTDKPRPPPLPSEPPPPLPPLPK

Structure (SMILES) | Selectivity vs. CDK2, ratio of IC50 values [1] | IC50 [2] [nM] | IC50 [3] [nM] | other results
COc1cc(F)ccc1-c1ncnc(Nc2cccc(CS(=O)(=O)C(C)(C)C)c2)n1 [Compound 9, N ‐{3‐[(tertButylsulfonyl)methyl]phenyl}‐4‐(4‐fluoro‐2‐methoxyphenyl)‐1,3,5‐triazin‐2‐amine] | 43 | – | 2900 | –
COc1cc(F)ccc1-c1ncnc(Nc2cccc(CS(C)(=O)=O)c2)n1 [Compound 4, 4‐(4‐Fluoro‐2‐methoxyphenyl)‐N‐{3‐[(methylsulfonyl)methyl]phenyl}‐1,3,5‐triazin‐2‐amine] | – | – | – | IC50 [4]: 130 nM
COc1cc(F)ccc1-c1ncnc(Nc2cccc(C(C)(C)S(C)(=O)=O)c2)n1 [Compound 11, 4‐(4‐Fluoro‐2‐methoxyphenyl)‐N‐{3‐[2‐(methylsulfonyl)propan‐2‐yl]phenyl}‐1,3,5‐triazin‐2‐amine] | >20 | 1000 | – | –
COc1cc(F)ccc1-c1ncnc(Nc2cccc(CS(N)(=O)=O)c2)n1.Cl [BAY‐958 hydrochloride, 1‐(3‐{[4‐(4‐Fluoro‐2‐methoxyphenyl)‐1,3,5‐triazin‐2‐yl]amino}phenyl)methanesulfonamide hydrochloride] | – | – | – | T/C ratio ([5]; 30 mg kg^−1 daily oral): 0.16; T/C ratio ([5]; 40 mg kg^−1 daily oral): 0.12; body weight change ([5]; 30 or 40 mg kg^−1 daily oral): less than 10%; fatal toxicities ([5]; 30 or 40 mg kg^−1 daily oral): no fatal toxicities
NS(=O)(=O)Cc1cccc(Nc2ncnc(-c3ccc(F)cc3F)n2)c1 [Compound 18, 1‐(3‐{[4‐(2,4‐Difluorophenyl)‐1,3,5‐triazin‐2‐yl]amino}phenyl)methanesulfonamide] | 16 | 270 | > 3000 | –
NS(=O)(=O)Cc1cccc(Nc2ncnc(-c3ccccc3OC(F)(F)F)n2)c1 [Compound 19, 1‐[3‐({4‐[2‐(Trifluoromethoxy)phenyl]‐1,3,5‐triazin‐2‐yl}amino)phenyl]methanesulfonamide] | 20 | 620 | > 3000 | –
COCc1ccccc1-c1ncnc(Nc2cccc(CS(N)(=O)=O)c2)n1 [Compound 20, 1‐[3‐({4‐[2‐(Methoxymethyl)phenyl]‐1,3,5‐triazin‐2‐yl}amino)phenyl]methanesulfonamide] | >11 | 1700 | – | –
NS(=O)(=O)Cc1cccc(Nc2ncnc(-c3ccc(F)cc3O)n2)c1 [Compound 17, 1‐(3‐{[4‐(4‐Fluoro‐2‐hydroxyphenyl)‐1,3,5‐triazin‐2‐yl]amino}phenyl)methanesulfonamide] | 6 | 130 | 2900 | –
CC(=O)Nc1cc(F)ccc1-c1ncnc(Nc2cccc(CS(N)(=O)=O)c2)n1 [Compound 21, N ‐[5‐Fluoro‐2‐(4‐{[3‐(sulfamoylmethyl)phenyl]amino}‐1,3,5‐triazin‐2‐yl)phenyl]acetamide] | <1 | – | 3000 | –
COc1cnccc1-c1ncnc(Nc2cccc(CS(N)(=O)=O)c2)n1 [Compound 16, 1‐(3‐{[4‐(3‐Methoxypyridin‐4‐yl)‐1,3,5‐triazin‐2‐yl]amino}phenyl)methanesulfonamide] | 14 | 1800 | – | –
COc1cc(F)ccc1-c1ncnc(Nc2cccc(C(C)S(C)(=O)=O)c2)n1 (racemic) [Compound 10, (rac)‐4‐(4‐Fluoro‐2‐methoxyphenyl)‐N‐{3‐[1‐(methylsulfonyl)ethyl]phenyl}‐1,3,5‐triazin‐2‐amine] | 21 | 85 | 3200 | –
NS(=O)(=O)Cc1cccc(Nc2ncnc(-c3ccc(F)cc3C(F)(F)F)n2)c1 [Compound 22, 1‐[3‐({4‐[4‐Fluoro‐2‐(trifluoromethyl)phenyl]‐1,3,5‐triazin‐2‐yl}amino)phenyl]methanesulfonamide] | 1 | – | – | –

The next lines start with results.

Selectivity vs. CDK2, ratio of IC50 values [1] | IC50 [2] [nM] | IC50 [3] [nM] | Structure (SMILES) | other results
19 | 67 | 4200 | COc1cc(F)ccc1-c1ncnc(Nc2cccc(C(F)(F)S(C)(=O)=O)c2)n1 [Compound 13, N ‐{3‐[Difluoro(methylsulfonyl)methyl]phenyl}‐4‐(4‐fluoro‐2‐methoxyphenyl)‐1,3,5‐triazin‐2‐amine] | –
34 | 4 | 100 | NS(=O)(=O)Cc1cccc(Nc2ncnc(-c3ccc(F)cc3OCc3ccccc3)n2)c1 [Compound 23, 1‐[3‐({4‐[2‐(Benzyloxy)‐4‐fluorophenyl]‐1,3,5‐triazin‐2‐yl}amino)phenyl]methanesulfonamide] | recovery at 60 min [6]: 0%; recovery at 60 min [7]: 0.2%; recovery at 60 min [8]: 0%
19 | 32 | 1340 | COc1cc(F)ccc1-c1ncnc(Nc2cccc(S(C)(=O)=O)c2)n1 [Compound 5, 4‐(4‐Fluoro‐2‐methoxyphenyl)‐N‐[3‐(methylsulfonyl)phenyl]‐1,3,5‐triazin‐2‐amine] | –
12 | 49 | 2200 | COc1cc(F)ccc1-c1ncnc(Nc2cccc(CCS(C)(=O)=O)c2)n1 [Compound 6, 4‐(4‐Fluoro‐2‐methoxyphenyl)‐N‐{3‐[2‐(methylsulfonyl)ethyl]phenyl}‐1,3,5‐triazin‐2‐amine] | –
<1 | 51 | 11000 | COc1cc(F)ccc1-c1ncnc(Nc2ccc3c(c2)CS(=O)(=O)C3)n1 [Compound 8, N‐( 2,2‐Dioxido‐1,3‐dihydro‐2‐benzothien‐5‐yl)‐4‐(4‐fluoro‐2‐methoxyphenyl)‐1,3,5‐triazin‐2‐amine] | –
62 | 23 | 1600 | COc1ccccc1-c1ncnc(Nc2cccc(CS(N)(=O)=O)c2)n1 [Compound 14, 1‐(3‐{[4‐(2‐Methoxyphenyl)‐1,3,5‐triazin‐2‐yl]amino}phenyl)methanesulfonamide] | –
13 | 20 | 890 | COc1cc(F)ccc1-c1ncnc(Nc2cccc(C(F)S(C)(=O)=O)c2)n1 (racemic) [Compound 12, (rac)‐4‐(4‐Fluoro‐2‐methoxyphenyl)‐N‐{3‐[fluoro(methylsulfonyl)methyl]phenyl}‐1,3,5‐triazin‐2‐amine] | –
22 | 7 | 550 | COc1cc(F)ccc1-c1ncnc(Nc2ccc3c(c2)S(=O)(=O)CC3)n1 [Compound 7, N‐( 1,1‐Dioxido‐2,3‐dihydro‐1‐benzothien‐6‐yl)‐4‐(4‐fluoro‐2‐methoxyphenyl)‐1,3,5‐triazin‐2‐amine] | –
108 | 27 | 3800 | COc1cc(Cl)ccc1-c1ncnc(Nc2cccc(CS(N)(=O)=O)c2)n1 [Compound 15, 1‐(3‐{[4‐(4‐Chloro‐2‐methoxyphenyl)‐1,3,5‐triazin‐2‐yl]amino}phenyl)methanesulfonamide] | –
